Test results published in ChEMBL document CHEMBL1201862, “PubChem BioAssay data set” (2004).
The source made the active and inactive calls.

What was measured:
[1] = molecular target: T1, Heat shock factor protein 1 (Mus musculus, UniProt P38532); assay: decrease of HSF1-responsive luciferase luminescence – cell-based, NIH3T3, dose retest, confirmation (AID 2382); type: functional;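 also: NIH3T3 fibroblasts with HSF1-driven luciferase reporter stressed by proteasome inhibitor MG132; luminescence from HSF1-driven luciferase expression after 8 hours of MG132 stress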
T1 sequence (P38532 whole entry): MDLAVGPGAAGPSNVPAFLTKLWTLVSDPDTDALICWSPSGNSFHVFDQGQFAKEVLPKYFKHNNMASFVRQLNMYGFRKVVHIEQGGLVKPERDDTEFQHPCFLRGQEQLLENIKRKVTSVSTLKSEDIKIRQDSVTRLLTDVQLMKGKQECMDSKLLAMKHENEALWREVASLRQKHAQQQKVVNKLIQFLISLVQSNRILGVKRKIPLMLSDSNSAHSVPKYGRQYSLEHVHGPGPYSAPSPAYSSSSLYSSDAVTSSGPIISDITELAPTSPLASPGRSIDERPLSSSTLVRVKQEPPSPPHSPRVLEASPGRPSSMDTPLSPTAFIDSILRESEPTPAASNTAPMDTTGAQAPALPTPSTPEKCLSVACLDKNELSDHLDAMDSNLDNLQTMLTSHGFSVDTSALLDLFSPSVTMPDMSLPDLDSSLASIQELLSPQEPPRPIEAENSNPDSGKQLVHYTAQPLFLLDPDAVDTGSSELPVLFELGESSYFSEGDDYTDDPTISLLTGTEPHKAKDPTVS

[2] = molecular target: Paired box protein Pax-8 (Homo sapiens, UniProt Q06710); assay: PAX8 transcriptional activity inhibition in RMG-I – RMG-I cells, luciferase, cherry-pick, dose response (AID 687027); type: functional, cell-based;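 also: luciferase reporter driven by Pax8 target thyroperoxidase promoter measured by SteadyGlo luminescence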
[3] = molecular target: Luciferin 4-monooxygenase (Photinus pyralis, UniProt P08659); assay: inhibition of purified Photinus pyralis luciferase – biochemical, luminescence, dose response (AID 1891)
[4] = molecular target: Nucleotide-binding oligomerization domain-containing protein 2 (Homo sapiens, UniProt Q9HC29); assay: inhibition of NOD2-driven NF-kB reporter – cell-based, luminescence, uHTS, HEK293 (AID 1566); type: functional
[5] = molecular target: T2, Short transient receptor potential channel 4 (Mus musculus, UniProt Q9QUQ5); assay: block of DAMGO-driven TRPC4 calcium entry – cell-based, HEK293 TRPC4/mu-opioid, Fluo-4 calcium, dose response (AID 434942); type: functional;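 also: potency of inhibitors blocking the TRPC4 calcium response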
T2 sequence (Q9QUQ5 whole entry): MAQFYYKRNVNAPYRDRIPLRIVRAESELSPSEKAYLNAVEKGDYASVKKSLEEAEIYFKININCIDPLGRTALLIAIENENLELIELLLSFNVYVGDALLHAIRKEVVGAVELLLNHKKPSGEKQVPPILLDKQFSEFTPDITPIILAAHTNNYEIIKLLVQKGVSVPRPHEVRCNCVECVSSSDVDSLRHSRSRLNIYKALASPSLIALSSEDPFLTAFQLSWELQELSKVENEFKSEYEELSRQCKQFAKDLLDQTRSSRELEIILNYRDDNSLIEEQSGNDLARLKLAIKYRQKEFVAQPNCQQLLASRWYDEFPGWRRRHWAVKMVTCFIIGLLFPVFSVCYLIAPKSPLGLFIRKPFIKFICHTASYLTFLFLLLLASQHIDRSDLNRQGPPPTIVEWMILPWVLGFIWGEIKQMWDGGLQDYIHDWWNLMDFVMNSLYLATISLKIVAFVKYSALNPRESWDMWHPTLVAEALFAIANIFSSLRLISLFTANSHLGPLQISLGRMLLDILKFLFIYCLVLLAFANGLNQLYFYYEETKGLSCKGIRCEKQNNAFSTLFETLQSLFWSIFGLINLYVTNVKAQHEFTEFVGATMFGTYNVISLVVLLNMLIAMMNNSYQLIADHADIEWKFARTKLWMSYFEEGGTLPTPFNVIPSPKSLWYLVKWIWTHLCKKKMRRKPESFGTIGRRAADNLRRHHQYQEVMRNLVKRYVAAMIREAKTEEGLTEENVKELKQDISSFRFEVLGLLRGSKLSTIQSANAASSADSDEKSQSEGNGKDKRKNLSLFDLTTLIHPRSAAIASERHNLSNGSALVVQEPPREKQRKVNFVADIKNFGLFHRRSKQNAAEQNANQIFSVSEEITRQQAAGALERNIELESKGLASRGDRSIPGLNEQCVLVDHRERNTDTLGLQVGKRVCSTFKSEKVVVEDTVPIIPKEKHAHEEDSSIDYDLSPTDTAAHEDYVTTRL

[6] = NIH-3T3 fibroblast cytotoxicity, dose response, cytotoxicity control, cell-based, fluorescence, Alamar Blue, secondary assay (AID 2327); type: functional;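 also: NIH-3T3 mouse fibroblasts cultured with fluconazole at 8 µg/mL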
[7] = luciferase reporter signal suppression in cells – H4 neuroglioma cells, luminescence, dose response (AID 1990); type: functional, cell-based
[8] = test system: INS1; assay: INS-1E survival protection against cytokine death – cell-based, luminescence, retest, dose response (AID 449756); type: functional; conditions: Rattus norvegicus;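 also: cell death triggered by IL-1 beta plus TNF-alpha plus IFN-gamma mixture; protective hits raise ATP signal compared with cytokine alone wells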
[9] = alpha-synuclein stem-loop luciferase translation blockers – H4 neuroglioma cells, luminescence, confirmation (AID 1988); type: functional, cell-based
[10] = molecular target: T3, Streptokinase A (Streptococcus pyogenes serotype M1, UniProt P10520); assay: viability-normalized secreted streptokinase activity reduction – plasminogen activation absorbance, OD405, dose response (AID 1914); type: functional, Streptococcus pyogenes M1 GAS;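 also: secreted streptokinase activity via plasminogen activation per viability signal from cell pellet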
T3 sequence (P10520 whole entry): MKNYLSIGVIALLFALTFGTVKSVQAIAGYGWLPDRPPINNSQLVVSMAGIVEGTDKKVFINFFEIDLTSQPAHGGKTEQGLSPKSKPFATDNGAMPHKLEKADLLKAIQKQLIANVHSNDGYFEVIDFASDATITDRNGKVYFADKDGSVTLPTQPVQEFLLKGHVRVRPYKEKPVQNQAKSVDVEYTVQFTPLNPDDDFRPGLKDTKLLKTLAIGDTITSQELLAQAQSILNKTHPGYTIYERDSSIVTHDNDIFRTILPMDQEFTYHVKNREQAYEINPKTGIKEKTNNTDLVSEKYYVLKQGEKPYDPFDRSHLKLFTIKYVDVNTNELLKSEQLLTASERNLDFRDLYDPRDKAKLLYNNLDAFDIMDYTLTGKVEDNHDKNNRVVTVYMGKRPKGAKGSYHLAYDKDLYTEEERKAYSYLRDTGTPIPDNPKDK

[11] = fluconazole-exposed Candida albicans growth modulators – fluorescence, retest, confirmation (AID 2467); type: functional, cell-based
[12] = Luminescence Cell-Based Dose Response HTS to Identify Inhibitors of 5'UTR Stem-Loop Driven Prion Protein mRNA Translation in H4 Neuroglioblastoma Cells. [Related pubchem assays: 1827 (Project Summary), 1813 (Primary HTS)]; type: functional
[13] = test system: Streptococcus; assay: GAS UMAA2166 growth inhibition – luminescence, BacTiterGlo, counter-screen for streptokinase expression inhibitor project, dose response (AID 1915); type: functional, organism-based;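 also: potency for reduction of bacterial viability or growth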
[14] = molecular target: Nonstructural protein 1 (Influenza A virus, UniProt Q194T2); type: functional, Influenza A virus (A/California/07/2009(H1N1))
[15] = test system: Streptococcus sp. 'group A'; assay: Streptococcus pyogenes SK(-)GAS viability under kanamycin – luminescence, BacTiterGlo, confirmation, counter-screen for streptokinase expression inhibitor project, dose response (AID 1900); type: functional, organism-based
[16] = molecular target: Troponin, cardiac muscle (Homo sapiens, UniProt P19429+P45379+P63316); assay: Fluorescence-based biochemical high throughput dose response assay for activators of the calcium sensitivity of cardiac Regulated Thin Filaments (RTF). [Related pubchem assays (depositor defined):AID493008, AID493018, AID504382, AID504383]; type: protein-complex assay
[17] = molecular target: Peroxisome proliferator-activated receptor gamma/Nuclear receptor coactivator 1 (Homo sapiens, UniProt P37231); assay: (§1) TR-FRET dose response biochemical High Throughput Screening assay for agonists of the steroid receptor coactivator 1 (SRC-1) recruitment by the peroxisome proliferator-activated receptor gamma (PPAR gamma): non-selective agonists. [Related pubchem assays (depositor defined):AID1300, AID1808, AID504735, AID631]; type: protein assay
[18] = molecular target: Peroxisome proliferator-activated receptor gamma/Nuclear receptor coactivator 3 (Homo sapiens, UniProt P37231); assay: as §1, with “3 (SRC-3)” for “1 (SRC-1)”, “assays: 1301 (Confirmation screen.), 1048 (Primary screen.)]” for “assays (depositor defined):AID1300, AID1808, AID504735, AID631]”; type: functional
[19] = molecular target: Peroxisome proliferator-activated receptor gamma/Nuclear receptor coactivator 2 (Homo sapiens, UniProt P37231); assay: TR-FRET dose response biochemical High Throughput Screening assay for agonists of the steroid receptor coactivator 2 (SRC-2) recruitment by the peroxisome proliferator-activated receptor gamma (PPAR gamma): non-selective agonists. [Related pubchem assays: 1297, 1032 ]; type: functional
[20] = molecular target: G-protein coupled receptor 55 (Homo sapiens, UniProt Q9Y2T6); assay: selective activators of receptor GPR55 – imaging, U2OS cells, beta-arrestin-GFP redistribution, primary screen (AID 1961); type: functional
[21] = molecular target: Eukaryotic translation initiation factor 4E (Mus musculus, UniProt P63073); assay: blockers of eIF4G binding by eIF4E – biochemical, TR-FRET, dose response (AID 855); type: functional;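 also: potency for disrupting eIF4E binding to eIF4GI seen as loss of FRET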
[22] = molecular target: T4, Ubiquitin-conjugating enzyme E2 N (Homo sapiens, UniProt P61088); type: functional;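 also: Dose-response confirmation in a TR-FRET assay detecting UBC13-driven polyubiquitin chain formation, inhibition measured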
T4 sequence (P61088 whole entry): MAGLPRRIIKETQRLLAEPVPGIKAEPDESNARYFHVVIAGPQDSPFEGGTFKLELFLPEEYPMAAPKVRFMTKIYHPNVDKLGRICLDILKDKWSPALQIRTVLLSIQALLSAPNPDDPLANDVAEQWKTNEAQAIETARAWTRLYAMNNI

With `COc1ccc(N(Cc2cc3cc(OC)ccc3[nH]c2=O)S(=O)(=O)c2ccc(NC(C)=O)cc2)cc1` the EC50 [1] was 0.309 µM (active), the AC50 [2] was 1.29 µM (active) and the EC50 [3] was > 112 µM (not active). The EC50 [4] was > 20 µM (inactive).
In the case of `N=c1sccn1CC(=O)Nc1ccccc1Oc1ccccc1`, the EC50 [5] is reported as 5.96 µM (active).
For `COc1cccc(/C=N/Nc2cc(N3CCOCC3)ncn2)c1O`, the EC50 [6] was > 150 µM (inactive), the EC50 [7] was 8.79 µM (active) and the AC50 [8] was 3.04 µM (active). For the same compound, the EC50 [9] was 4.5 µM (active), the EC50 [10] was > 150 µM (not active) and the EC50 [11] was 5.78 µM (active). For the same compound, the EC50 [12] was 4.01 µM (active), the EC50 [13] was 9.45 µM (active) and the IC50 [14] was 5.96 µM (active). For the same compound, the EC50 [15] was 9.07 µM (active).
For `S=c1[nH]nc(-c2ccc(Cl)cc2)n1-c1ccc2c(c1)OCCO2`, the EC50 [16] was > 71.5 µM (inactive).
For `COC(=O)c1sc(N2C(=O)C(O)=C(C(=O)c3ccc(C)o3)C2c2ccc(F)cc2)nc1C` (centres undefined), the EC50 [16] was > 71.4 µM (inactive), the EC50 [17] was 41.9 µM (inactive) and the EC50 [18] was > 79.4 µM (not active). The EC50 [19] was 32.3 µM (not active).
With `Oc1[nH]nc(C(F)(F)F)c1/C=N/Cc1ccccc1Cl` the EC50 [16] was > 71.4 µM (inactive).
For `CCN(CC)C(=O)CC(c1ccc(N(C)C)cc1)c1c(OC)cc(OC)c2c(-c3ccccc3)cc(=O)oc12` (centres undefined), the EC50 [20] was 2.74 µM (active).
In the case of `Cc1ccc(-c2csc(NC(=O)CSc3nc4ccccc4c(=O)n3CCCN(C)C)n2)cc1`, the IC50 [21] is reported as 50 µM (inactive) and the IC50 [22] is reported as > 20 µM (inactive).
